Laboratory results from BindingDB's records for doi:10.1016/j.bmc.2017.06.015 (China Pharmaceutical University, 2017).

How the values were obtained:
[1] = Inhibition of ABCB1 in human K562/A02 cells assessed as potentiation of adriamycin-induced cytotoxicity by measuring ADR IC50 at 5 uM measured after 48 hrs by MTT assay (Rvb = 43.75 to 96.91 uM)
[2] = biological target: ATP-dependent translocase ABCB1 (Homo sapiens, UniProt P08183); test: Inhibition of ABCB1 in human K562/A02 cells assessed as potentiation of adriamycin-induced cytotoxicity by measuring ADR IC50 at 5 uM measured after 48 hrs by MTT assay (Rvb = 43.75 to 96.91 uM)
ATP-dependent translocase ABCB1, sequence (P08183 whole entry): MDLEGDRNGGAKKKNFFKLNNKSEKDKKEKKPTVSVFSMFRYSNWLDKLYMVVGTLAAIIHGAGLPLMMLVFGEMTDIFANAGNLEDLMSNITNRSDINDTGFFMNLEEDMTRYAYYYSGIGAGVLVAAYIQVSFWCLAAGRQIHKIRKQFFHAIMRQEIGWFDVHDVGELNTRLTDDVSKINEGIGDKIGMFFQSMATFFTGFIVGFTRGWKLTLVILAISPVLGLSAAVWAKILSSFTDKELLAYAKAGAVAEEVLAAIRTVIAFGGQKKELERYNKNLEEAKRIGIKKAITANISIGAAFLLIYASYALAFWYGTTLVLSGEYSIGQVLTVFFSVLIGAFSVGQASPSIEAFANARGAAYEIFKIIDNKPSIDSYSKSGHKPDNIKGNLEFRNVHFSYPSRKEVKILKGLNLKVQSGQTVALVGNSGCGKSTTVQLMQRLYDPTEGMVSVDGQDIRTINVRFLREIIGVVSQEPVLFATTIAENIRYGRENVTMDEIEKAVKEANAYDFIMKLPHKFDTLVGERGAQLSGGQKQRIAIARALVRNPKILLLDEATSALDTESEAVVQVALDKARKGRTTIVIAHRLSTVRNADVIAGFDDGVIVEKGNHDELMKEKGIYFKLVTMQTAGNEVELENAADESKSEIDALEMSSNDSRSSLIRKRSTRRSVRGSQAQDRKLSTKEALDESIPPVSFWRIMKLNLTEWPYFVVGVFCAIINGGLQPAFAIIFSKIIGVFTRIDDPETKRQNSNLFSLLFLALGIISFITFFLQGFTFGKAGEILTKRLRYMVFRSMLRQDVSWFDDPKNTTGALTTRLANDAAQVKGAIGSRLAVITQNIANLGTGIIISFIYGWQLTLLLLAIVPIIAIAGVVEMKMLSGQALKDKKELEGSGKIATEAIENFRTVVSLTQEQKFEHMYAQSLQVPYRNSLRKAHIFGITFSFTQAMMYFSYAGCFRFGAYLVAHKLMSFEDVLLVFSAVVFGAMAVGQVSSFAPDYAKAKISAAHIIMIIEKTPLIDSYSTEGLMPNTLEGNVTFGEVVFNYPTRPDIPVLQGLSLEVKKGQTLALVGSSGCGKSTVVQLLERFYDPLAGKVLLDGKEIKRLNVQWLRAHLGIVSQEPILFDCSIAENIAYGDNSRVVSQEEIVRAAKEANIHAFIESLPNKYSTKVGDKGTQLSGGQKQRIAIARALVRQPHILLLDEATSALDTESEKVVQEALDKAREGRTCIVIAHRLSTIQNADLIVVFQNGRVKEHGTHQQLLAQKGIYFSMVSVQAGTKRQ

[3] = Inhibition of ABCB1 in human K562/A02 cells assessed as potentiation of adriamycin-induced cytotoxicity by measuring ADR IC50 at 0.025 uM measured after 48 hrs by MTT assay (Rvb = 43.75 uM)
[4] = Inhibition of ABCB1 in human K562/A02 cells assessed as potentiation of adriamycin-induced cytotoxicity by measuring ADR IC50 at 2.5 uM measured after 48 hrs by MTT assay (Rvb = 43.75 uM)
[5] = Inhibition of ABCB1 in human K562/A02 cells assessed as potentiation of adriamycin-induced cytotoxicity by measuring ADR IC50 at 0.25 uM measured after 48 hrs by MTT assay (Rvb = 43.75 uM)
[6] = Inhibition of ABCB1 in human K562/A02 cells assessed as potentiation of adriamycin-induced cytotoxicity by measuring ADR IC50 at 0.1 uM measured after 48 hrs by MTT assay (Rvb = 43.75 uM)
[7] = Inhibition of ABCB1 in human K562/A02 cells assessed as potentiation of adriamycin-induced cytotoxicity by measuring ADR IC50 treated for 48 hrs followed by compound washout measured immediately by MTT assay (Rvb = 51.34 +/- 5.1 uM)
[8] = Inhibition of ABCB1 in human K562/A02 cells assessed as potentiation of adriamycin-induced cytotoxicity by measuring ADR IC50 treated for 48 hrs followed by compound washout measured after 12 hrs by MTT assay (Rvb = 51.34 +/- 5.1 uM)
[9] = Inhibition of ABCB1 in human K562/A02 cells assessed as potentiation of adriamycin-induced cytotoxicity by measuring ADR IC50 at 0.5 uM measured after 48 hrs by MTT assay (Rvb = 43.75 uM)
[10] = Inhibition of ABCB1 in human K562/A02 cells assessed as potentiation of adriamycin-induced cytotoxicity by measuring ADR IC50 treated for 48 hrs followed by compound washout measured after 24 hrs by MTT assay (Rvb = 51.34 +/- 5.1 uM)
[11] = Inhibition of ABCB1 in human K562/A02 cells assessed as potentiation of adriamycin-induced cytotoxicity by measuring ADR IC50 at 1 uM measured after 48 hrs by MTT assay (Rvb = 43.75 uM)
[12] = Inhibition of ABCB1 in human K562/A02 cells assessed as potentiation of adriamycin-induced cytotoxicity by measuring ADR IC50 treated for 48 hrs followed by compound washout measured after 6 hrs by MTT assay (Rvb = 51.34 +/- 5.1 uM)
[13] = Inhibition of ABCB1 in human K562/A02 cells assessed as potentiation of adriamycin-induced cytotoxicity measured after 48 hrs by MTT assay
[14] = Inhibition of ABCB1 in human K562/A02 cells assessed as potentiation of adriamycin-induced cytotoxicity by measuring ADR IC50 measured after 48 hrs by MTT assay (Rvb = 51.34 +/- 5.1 uM)
[15] = Inhibition of ABCB1 in human K562/A02 cells assessed as potentiation of adriamycin-induced cytotoxicity by measuring ADR IC50 at 0.05 uM measured after 48 hrs by MTT assay (Rvb = 43.75 uM)

## CCCCc1ccc(NC(=O)c2ccccc2OCc2cn(CCN3CCc4cc(OC)c(OC)cc4C3)nn2)cc1
[1]
  IC50: 6.25 µM

## COc1cccc(NC(=O)c2ccccc2OCc2cn(CCN3CCc4cc(OC)c(OC)cc4C3)nn2)c1
[2]
  IC50: 8.73 µM

## COc1ccc(NC(=O)c2ccccc2OCc2cn(CCN3CCc4cc(OC)c(OC)cc4C3)nn2)cc1
[1]
  IC50: 8.38 µM

## COc1cc2c(cc1OC)CN(CCn1cc(COc3ccccc3C(=O)Nc3ccc(C(C)(C)C)cc3)nn1)CC2
[3]
  IC50: 37.2 µM
[4]
  IC50: 3.33 µM
[5]
  IC50: 18.4 µM
[6]
  IC50: 34.9 µM
[7]
  IC50: 4.33 µM
[8]
  IC50: 10.3 µM
[9]
  IC50: 12.5 µM
[10]
  IC50: 17.2 µM
[11]
  IC50: 6.02 µM
[2]
  IC50: 1.27 µM
[12]
  IC50: 6.32 µM
[13]
  EC50: 0.256 µM
[14]
  IC50: 1.26 µM
[15]
  IC50: 37.2 µM

## COc1cc2c(cc1OC)CN(CCn1cc(COc3ccccc3C(=O)Nc3cccc(C)c3)nn1)CC2
[1]
  IC50: 12.2 µM

## COc1cc2c(cc1OC)CN(CCn1cc(COc3ccccc3C(=O)Nc3cc(OC)c(OC)c(OC)c3)nn1)CC2
[1]
  IC50: 31.9 µM

## COc1cc2c(cc1OC)CN(CCn1cc(COc3ccccc3C(=O)Nc3ccc(OC(F)(F)F)cc3)nn1)CC2
[1]
  IC50: 4.52 µM

## COc1cc2c(cc1OC)CN(CCn1cc(COc3ccccc3C(=O)Nc3ccc([N+](=O)[O-])cc3)nn1)CC2
[1]
  IC50: 21.1 µM

## COc1cc2c(cc1OC)CN(CCc1ccc(NC(=O)c3cc(OC)c(OC)cc3NC(=O)c3cnc4ccccc4c3)cc1)CC2
[1]
  IC50: 1.97 µM
[7]
  IC50: 3.02 µM
[8]
  IC50: 8.28 µM
[10]
  IC50: 14.4 µM
[12]
  IC50: 4.97 µM
[14]
  IC50: 1.6 µM

## COc1cc2c(cc1OC)CN(CCn1cc(COc3ccccc3C(=O)Nc3ccccc3[N+](=O)[O-])nn1)CC2
[1]
  IC50: 26.9 µM

## COc1cc2c(cc1OC)CN(CCn1cc(COc3ccccc3C(=O)Nc3cccc(Cl)c3)nn1)CC2
[1]
  IC50: 22.8 µM

## COc1cc2c(cc1OC)CN(CCn1cc(COc3ccccc3C(=O)Nc3cccc([N+](=O)[O-])c3)nn1)CC2
[1]
  IC50: 27.7 µM

## COc1cc2c(cc1OC)CN(CCn1cc(COc3ccccc3C(=O)Nc3ccc(F)cc3)nn1)CC2
[1]
  IC50: 8.29 µM

## COc1cc2c(cc1OC)CN(CCn1cc(COc3ccccc3NC(=O)c3ccc(C(C)(C)C)cc3)nn1)CC2
[1]
  IC50: 3.42 µM

## COc1cc2c(cc1OC)CN(CCn1cc(COc3ccccc3C(=O)Nc3ccc(Cl)cc3)nn1)CC2
[1]
  IC50: 6.93 µM

## COc1ccc(NC(=O)c2ccccc2OCc2cn(CCN3CCc4cc(OC)c(OC)cc4C3)nn2)cc1OC
[1]
  IC50: 7.82 µM

## COc1cc2c(cc1OC)CN(CCn1cc(COc3ccccc3C(=O)Nc3ccccc3)nn1)CC2
[1]
  IC50: 25.5 µM

## COc1cc2c(cc1OC)CN(CCn1cc(COc3ccccc3C(=O)Nc3ccc(C)cc3)nn1)CC2
[1]
  IC50: 7.65 µM
